Results: US20070027218A1, “Pharmaceutical compositions comprising higher primary alcohols and ezetimibe and process of preparation thereof” (PANACEA BIOTEC LTD., priority 2004, published 2007)

Tested on: Casein-Starch-Induced Hypercholesterolemia in Rabbits
Test: Casein-starch-induced hypercholesterolemia in rabbits (serum lipid profile)
Format: in vivo
Conditions: for LDL-C level / serum total cholesterol level: mean ± S.E.M., in mg/dL (unit assumed)
Experimental: The observed unexpected synergistic lipid lowering effect of combination of Extract-A as described herein and ezetimibe is evidenced by the test conducted in rabbits. Rabbits of either sex were procured from Central Animal House facility; Panacea Biotec Ltd., India. Animals weighing […] at the time of testing were used throughout. All animals were dosed sequentially by the oral route with Extract-A and/or ezetimibe suspended in 0.5% of carboxymethyl cellulose (CMC). A dosing volume of 2 ml/kg was used for each sequential suspension.
The fasting serum lipid profile (TC, TGs, LDL-C, HDL-C) was estimated before initiation of the experiment. […] Hypercholesterolemia was induced by feeding rabbits with wheat casein-starch diet (g/kg) containing wheat flour 333, cellulose 300, casein 270, water 20, maize oil 10, and mineral mixture (Kroon et al., 1982) for 8 weeks. Feed consumption was restricted to 100 g/day per animal. The cholesterol level was estimated every 15 days. After 60 days animals with total cholesterol level>150 mg/dl were randomized to treatment (n=6/group). Thereafter, various doses of Extract-A and/or ezetimibe were administered for another 60 days during which animals were fed with casein-starch diet. Blood samples were collected from fasted rabbits and analyzed for any alteration in serum lipid profile after 60 days of test compound(s) administration.
All the data are expressed as mean±S.E.M. (Standard Error of Mean). Student t-test was used to compare the lipid parameters between animals fed with standard and hypercholesterolemic diet. The difference between various drug treated groups was analyzed by ANOVA followed by Dunnett's test. A value of P<0.05 was considered as statistically significant.

[1] = Extract-A 100 and 200 mg/kg p.o., ezetimibe 5 and 10 mg/kg p.o., alone or in combination, vs hypercholesterolemic control rabbits
[2] = ezetimibe 5 mg/kg p.o., day 0 (before treatment)
[3] = ezetimibe 5 mg/kg p.o., day 15 (before treatment)
[4] = ezetimibe 5 mg/kg p.o., day 30 (before treatment)
[5] = ezetimibe 5 mg/kg p.o., day 60 (start of treatment)
[6] = ezetimibe 5 mg/kg p.o., day 75 (treatment from day 60)
[7] = ezetimibe 5 mg/kg p.o., day 90 (treatment from day 60)
[8] = ezetimibe 5 mg/kg p.o., day 105 (treatment from day 60)
[9] = ezetimibe 5 mg/kg p.o., day 120 (treatment from day 60)
[10] = ezetimibe 10 mg/kg p.o., day 0 (before treatment)
[11] = ezetimibe 10 mg/kg p.o., day 15 (before treatment)
[12] = ezetimibe 10 mg/kg p.o., day 30 (before treatment)
[13] = ezetimibe 10 mg/kg p.o., day 60 (start of treatment)
[14] = ezetimibe 10 mg/kg p.o., day 75 (treatment from day 60)
[15] = ezetimibe 10 mg/kg p.o., day 90 (treatment from day 60)
[16] = ezetimibe 10 mg/kg p.o., day 105 (treatment from day 60)
[17] = ezetimibe 10 mg/kg p.o., day 120 (treatment from day 60)

Which results are given for `O=C1[C@H](CC[C@H](O)c2ccc(F)cc2)[C@@H](c2ccc(O)cc2)N1c1ccc(F)cc1` [Ez, ezetimibe]?
LDL-C levels (result in words) [1]: reversed; TC levels (result in words) [1]: reversed; LDL-C level [2]: 22.40 ± 8.81; serum total cholesterol level [2]: 52.50 ± 3.59; LDL-C level [3]: 76.13 ± 3.11; serum total cholesterol level [3]: 103.50 ± 2.23; LDL-C level [4]: 131.53 ± 6.89; serum total cholesterol level [4]: 169.83 ± 6.16; LDL-C level [5]: 174.3 ± 8.02; serum total cholesterol level [5]: 219.83 ± 7.5; LDL-C level [6]: 194.07 ± 4.29; serum total cholesterol level [6]: 236.50 ± 3.47; LDL-C level [7]: 179.47 ± 3.74; serum total cholesterol level [7]: 222.83 ± 2.77; LDL-C level [8]: 156.47 ± 12.92; serum total cholesterol level [8]: 201.00 ± 12.6; LDL-C level [9]: 129.17 ± 9.02; serum total cholesterol level [9]: 181.50 ± 8.55; LDL-C level [10]: 23.70 ± 7.98; serum total cholesterol level [10]: 46.50 ± 2.2; LDL-C level [11]: 72.70 ± 3.92; serum total cholesterol level [11]: 106.83 ± 3.38; LDL-C level [12]: 125.07 ± 10.94; serum total cholesterol level [12]: 162.50 ± 11.54; LDL-C level [13]: 197.03 ± 13.55; serum total cholesterol level [13]: 234.50 ± 14.24; LDL-C level [14]: 179.83 ± 9.83; serum total cholesterol level [14]: 220.33 ± 8.73; LDL-C level [15]: 152.80 ± 6.17; serum total cholesterol level [15]: 197.66 ± 5.42; LDL-C level [16]: 126.60 ± 6.85; serum total cholesterol level [16]: 172.16 ± 6.58; LDL-C level [17]: 124.63 ± 6.55; serum total cholesterol level [17]: 171.50 ± 4.7
